# Measured values as given in US10513694B2, “Thienopyrrole compounds and uses thereof” (PROMEGA CORPORATION, priority 2015, dated 2019).
# Entries after “also recorded” stand apart in the source; their conditions may differ.
# Experiments:
# [1] = system: Nluc enzyme; test: Multiplex RealTime-Glo / Caspase-Glo 3/7 in MCF7 cells; type: cell-based
# Protocol: (§1) A) In a Corning 3570 assay plate, MCF7 cells were plated at 1,000 cells/well in 20 μL of cell culture media (EMEM supplemented with 0.01 mg/mL human recombinant insulin and 10% fetal bovine serum) and incubated in overnight. 10 μL of 4× REALTIME-GLO™ MT Cell Viability reagents (Promega Corporation) in media or 10 μL media only was added to the cells. 10 μL of 40 μM staurosporine in media or 10 μL media only (control) was added to the cells. The cells were incubated, and caspase activation monitored at 5.5 hrs post-reagent addition. To monitor caspase activation, 40 μL CASPASE-GLO® 3/7 Assay Reagent (Promega Corporation), either on its own (Caspase) or with 200 μM of JRW-0004, JRW-0013, or JRW-0042, was added. Reactions were incubated at RT, and luminescence was measured at 1 hr 10 min post-reagent addition on Tecan M1000 Pro plate reader.
# (§2) When comparing the signal generated from the CASPASE-GLO® reagent in media only versus the signal generated in media containing REALTIME-GLO™ reagent, the signal is higher in the multiplex reaction.
# [2] = target: NANOLUC® enzyme (Oplophorus gracilirostris, UniProt Q9GV45, A31E/A60N/A81I/F95D/I117V/K70R/L54V/L99Q/M102K/N193R/P142E/Q151K/Q38R/Q45L/V71I/Y165I); test: Inhibitor IC50 determination (NANOLUC enzyme, furimazine); type: biochemical; conditions: IC50 (uM), 0.4 ng/ml NANOLUC enzyme, final furimazine 10 uM (at Km)
# [3] = system: firefly luciferase, e.g., ULTRAGLO® luciferase; test: Specificity of inhibition: firefly luciferase activity; type: biochemical; conditions: 1 μM luciferin in Luciferase Detection Reagent; RT 2 hrs
# Protocol: The following example describes the specificity of disclosed thienopyrrole compounds, JRW-0004, JRW-0013, JRW-0006, JRW-0042, JRW-0138, and JRW-0147, to inhibit Nluc luciferase activity versus firefly luciferase activity, e.g., ULTRAGLO® luciferase. In a Corning 3570 assay plate, a solution containing 1 μM luciferin in Luciferase Detection Reagent (Promega Corporation V865/859) was added to the assay wells. An equal volume of titrations the thienopyrrole compounds, JRW-0004, JRW-0013, JRW-0006, JRW-0042, JRW-0138, and JRW-0147 were then added to the wells. The reactions were incubated at RT for 2 hrs, and luminescence was measured on Tecan M1000 Pro plate reader.
# [4] = target: Nluc (Oplophorus gracilirostris, UniProt Q9GV45, A31E/A60N/A81I/F95D/I117V/K70R/L54V/L99Q/M102K/N193R/P142E/Q151K/Q38R/Q45L/V71I/Y165I); test: Multiplex RealTime-Glo / Caspase-Glo 3/7 in MCF7 cells; type: cell-based; parameters: purchased Promega Corporation
# Protocol: as §1, §2
# [5] = target: Nluc luciferase (Oplophorus gracilirostris, UniProt Q9GV45, A31E/A60N/A81I/F95D/I117V/K70R/L54V/L99Q/M102K/N193R/P142E/Q151K/Q38R/Q45L/V71I/Y165I); test: Inhibition of purified Nluc, dose and time dependence; type: biochemical; conditions: pro-substrate PBI-4442, DTT, TERGITOL, RT, various time points
# Protocol: A solution of purified Nluc and an Nluc pro-substrate (PBI-4442, which is described in US 2013/0130289), which is converted to an Nluc substrate upon reduction with DTT, were prepared in PBS buffer, pH 7.5. A 40 mM solution of DTT in PBS, pH 7.5 containing 1% TERGITOL was also prepared. Titrations of the thienopyrrole compounds JRW-0004, WZ141-88, WZ141-86, WZ141-74, WZ141-84, WZ141-89, WZ141-90, and WZ141-91 in the buffer containing DTT and TERGITOL were then prepared. An equal volume of the Nluc/pro-substrate solution was added to the thienopyrrole compound titrations in wells of an assay plate. The reactions were incubated at RT, and luminescence was measured at various time points on the Tecan M100 Pro plate reader (integration time 200 ms). IC50 values were determined using GraphPad Prism 6.03.
# [6] = target: T1, purified Nluc enzyme (Oplophorus gracilirostris, UniProt Q9GV45, A31E/A60N/A81I/F95D/I117V/K70R/L54V/L99Q/M102K/N193R/P142E/Q151K/Q38R/Q45L/V71I/Y165I); type: biochemical; conditions: titration up to 100 μM final; RT 2 hrs; pro-substrate PBI-4442 + DTT
# T1 construct: purchased Promega Corporation
# Protocol: In a Corning 3570 assay plate, purified Nluc enzyme (Promega Corporation), 20 mM DTT, and an Nluc pro-substrate (PBI-4442, which is described in US Patent Publication No. 2013/0130289), which is converted to an Nluc substrate upon reduction with DTT, was added. Compound titrations of JRW-0004, JRW-0013, JRW-0006, JRW-0042, JRW-0138, and JRW-0147 were then made (1:2 serial dilution in PBS, 11 points plus no inhibitor control, starting at 200 μM; 100 μM final concentration in reaction). Compound titrations were added in equal volume to the wells of the assay plate. The reactions were incubated at RT for 2 hrs, and luminescence was measured on Tecan M1000 Pro plate reader. Half-maximal inhibitor (thienopyrrole compound) concentrations (IC50s) were determined using GraphPad Prism 6.03.
# [7] = target: T2, Nluc enzyme in REALTIME-GLO™ MT Cell Viability reagent (Oplophorus gracilirostris, UniProt Q9GV45, A31E/A60N/A81I/F95D/I117V/K70R/L54V/L99Q/M102K/N193R/P142E/Q151K/Q38R/Q45L/V71I/Y165I); test: RealTime-Glo / Caspase-Glo multiplex in K562 cells; type: cell-based; conditions: Trail titration, 200 μM in CASPASE-GLO 3/7 reagent, 2 hrs RT
# T2 construct: purchased Promega Corporation
# Protocol: K562 were plated into wells of a Corning 3707 assay plate in 20 μL RPMI media at 2000 cells/well and incubated overnight. A Trail titration was prepared in 10 μL RPMI media and added to cells. Then either 10 μL 4× REALTIME-GLO™ MT Cell Viability reagent (RTCV; Promega Corporation) or media (control) was added to each well. The reactions were incubated at 37° C./5% CO2 at various time points, and luminescence was measured on a Tecan M1000 Pro plate reader. At 5 hrs, 40 μL CASPASE-GLO® 3/7 detection reagent (Promega Corporation) was added with or without 200 μM JRW-0004. The reaction was incubated for 2 hrs at room temperature (RT), and luminescence was measured on the Tecan M1000 Pro plate reader.
# [8] = 10 μM Stauro vs Control, 200 μM compound
# [9] = CASPASE-GLO 3/7 reagent with 200 μM compound, 1 hr 10 min
# Sequence of Nluc (Q9GV45 28-196 with tags or gaps with the stated changes limits assumed): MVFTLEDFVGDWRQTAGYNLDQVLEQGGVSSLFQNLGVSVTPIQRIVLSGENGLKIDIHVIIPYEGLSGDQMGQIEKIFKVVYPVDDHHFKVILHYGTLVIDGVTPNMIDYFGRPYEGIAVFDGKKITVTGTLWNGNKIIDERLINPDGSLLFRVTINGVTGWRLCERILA
# Sequence of Nluc luciferase (Q9GV45 28-196 with tags or gaps with the stated changes limits assumed): as above
# T2 sequence (Q9GV45 28-196 with tags or gaps with the stated changes limits assumed): as above
# T1 sequence (Q9GV45 28-196 with tags or gaps with the stated changes limits assumed): as above
# Sequence of NANOLUC® enzyme (Q9GV45 28-196 with tags or gaps with the stated changes limits assumed): as above
smiles,measurement,setting,value
"CCN(C(=O)Cn1c(C(=O)OC)cc2sccc21)c1cccc(C)c1 [JRW-0004, methyl 4-(2-(ethyl(m-tolyl)amino)-2-oxoethyl)-4H-thieno[3,2-b]pyrrole-5-carboxylate]","Fold Cont, Media only",[1]; [8],5.89
same,"Avg (luminescence), Media only, 10 μM Stauro",[1]; [9],54589
same,"Avg (luminescence), Media only, Control",[1]; [9],9261
same,IC50,[2],1.1 µM
same,Inhibition of firefly luciferase activity (FIG. 3),[3],do not inhibit firefly luciferase activity; also recorded: did not inhibit the firefly luciferase activity
same,"Fold Cont, Media containing RealTime-Glo",[4]; [8],5.53
same,"Avg (luminescence), Media containing RealTime-Glo, 10 μM Stauro",[4]; [9],50266
same,"Avg (luminescence), Media containing RealTime-Glo, Control",[4]; [9],9090
same,"Inhibition of Nluc luciferase, dose and time dependence (FIGS. 4-6)",[5],inhibit Nluc luciferase in a dose- and time-dependent manner
same,Inhibition of purified Nluc enzyme (FIG. 2),[6],capable of inhibiting purified Nluc enzyme
same,Inhibition of Nluc enzyme in RealTime-Glo reagent (FIG. 1),[7],can inhibit the Nluc enzyme
